Experimental findings from US20220340597A1, “HEXAHYDRO-1H-PYRAZINO[1,2-A]PYRAZINE COMPOUNDS FOR THE TREATMENT OF AUTOIMMUNE DISEASE” (Hoffmann-La Roche Inc., priority 2019, published 2022) are described below.

One test deals with T1, human TLR8 (Homo sapiens, UniProt Q9NR97).
T1 sequence (Q9NR97 27-1041): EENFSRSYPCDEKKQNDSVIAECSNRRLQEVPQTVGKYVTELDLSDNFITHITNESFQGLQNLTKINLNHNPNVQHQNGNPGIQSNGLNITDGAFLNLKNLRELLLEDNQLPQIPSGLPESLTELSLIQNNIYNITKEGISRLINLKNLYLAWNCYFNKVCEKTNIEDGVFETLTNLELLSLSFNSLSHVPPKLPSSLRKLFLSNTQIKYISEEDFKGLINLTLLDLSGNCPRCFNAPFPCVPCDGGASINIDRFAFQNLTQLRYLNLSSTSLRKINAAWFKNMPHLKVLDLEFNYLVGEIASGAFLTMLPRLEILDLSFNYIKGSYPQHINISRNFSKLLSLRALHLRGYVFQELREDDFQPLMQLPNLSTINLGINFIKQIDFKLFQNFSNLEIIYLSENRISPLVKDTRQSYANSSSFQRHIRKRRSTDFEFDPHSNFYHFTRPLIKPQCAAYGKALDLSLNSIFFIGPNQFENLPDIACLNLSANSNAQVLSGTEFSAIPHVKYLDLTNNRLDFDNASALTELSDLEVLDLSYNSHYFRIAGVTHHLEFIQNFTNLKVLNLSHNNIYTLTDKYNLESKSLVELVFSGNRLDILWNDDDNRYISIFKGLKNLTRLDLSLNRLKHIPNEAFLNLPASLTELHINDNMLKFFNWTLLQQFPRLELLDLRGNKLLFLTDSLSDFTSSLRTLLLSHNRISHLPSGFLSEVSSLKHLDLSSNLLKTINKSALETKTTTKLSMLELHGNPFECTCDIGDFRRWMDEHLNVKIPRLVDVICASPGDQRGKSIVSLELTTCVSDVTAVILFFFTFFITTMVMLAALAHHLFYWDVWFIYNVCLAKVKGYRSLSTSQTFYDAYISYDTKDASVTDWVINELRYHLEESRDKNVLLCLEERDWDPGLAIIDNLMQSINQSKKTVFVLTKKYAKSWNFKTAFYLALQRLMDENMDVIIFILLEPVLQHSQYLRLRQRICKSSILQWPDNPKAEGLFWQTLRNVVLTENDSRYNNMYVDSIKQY
The experiment in a line: HEK293-Blue-hTLR-8 cells assay.

A further test has as its target T2, human TLR7 (Homo sapiens, UniProt Q9NYK1).
T2 construct: host or cells: HEK293 (HEK-Blue hTLR7)
T2 sequence (Q9NYK1 27-1049): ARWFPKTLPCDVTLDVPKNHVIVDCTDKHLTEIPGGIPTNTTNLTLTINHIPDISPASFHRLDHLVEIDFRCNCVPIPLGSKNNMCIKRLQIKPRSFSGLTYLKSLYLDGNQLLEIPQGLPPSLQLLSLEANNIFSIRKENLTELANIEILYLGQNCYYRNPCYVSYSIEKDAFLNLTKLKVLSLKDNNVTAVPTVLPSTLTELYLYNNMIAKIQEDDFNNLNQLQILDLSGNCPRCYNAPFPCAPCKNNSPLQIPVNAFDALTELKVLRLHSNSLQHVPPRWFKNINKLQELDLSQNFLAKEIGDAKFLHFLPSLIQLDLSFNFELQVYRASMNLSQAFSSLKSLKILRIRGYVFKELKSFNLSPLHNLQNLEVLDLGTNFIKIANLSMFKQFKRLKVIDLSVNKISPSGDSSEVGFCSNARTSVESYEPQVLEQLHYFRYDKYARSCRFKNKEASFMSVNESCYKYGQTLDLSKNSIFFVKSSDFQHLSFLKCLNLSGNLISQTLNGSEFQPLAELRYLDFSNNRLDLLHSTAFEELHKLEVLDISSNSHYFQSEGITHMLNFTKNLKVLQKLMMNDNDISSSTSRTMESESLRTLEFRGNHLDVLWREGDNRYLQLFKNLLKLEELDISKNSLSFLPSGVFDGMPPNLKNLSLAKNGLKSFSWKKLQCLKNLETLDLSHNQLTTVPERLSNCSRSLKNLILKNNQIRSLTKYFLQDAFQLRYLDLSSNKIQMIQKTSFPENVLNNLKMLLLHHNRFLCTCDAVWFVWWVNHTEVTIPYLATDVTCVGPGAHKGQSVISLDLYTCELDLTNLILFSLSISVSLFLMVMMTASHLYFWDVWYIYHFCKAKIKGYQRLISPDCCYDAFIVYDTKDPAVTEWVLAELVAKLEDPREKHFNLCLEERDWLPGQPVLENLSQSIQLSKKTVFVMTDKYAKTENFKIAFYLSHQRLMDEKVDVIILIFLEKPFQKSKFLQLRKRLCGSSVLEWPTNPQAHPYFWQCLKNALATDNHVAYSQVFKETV
Kind of test: HEK293-Blue-hTLR-7 cells assay. It counts as cell-based. As to conditions: HEK293-Blue-hTLR7 cells, R848 stimulation, 20 hrs, SEAP reporter; read-out: HEK/hTLR7 IC50.

Procedure for human TLR8: The following tests were carried out in order to determine the activity of the compounds of formula (I) and (Ia) in HEK293-Blue-hTLR-7/8/9 cells assay.
HEK293-Blue-hTLR-8 Cells Assay:
A stable HEK293-Blue-hTLR-8 cell line was purchased from InvivoGen (Cat. #: hkb-htlr8, San Diego, Calif., USA). These cells were originally designed for studying the stimulation of human TLR8 by monitoring the activation of NF-κB. A SEAP (secreted embryonic alkaline phosphatase) reporter gene was placed under the control of the IFN-β minimal promoter fused to five NF-κB and AP-1-binding sites. The SEAP was induced by activating NF-κB and AP-1 via stimulating HEK-Blue hTLR8 cells with TLR8 ligands. Therefore, the reporter expression was declined by TLR8 antagonist under the stimulation of a ligand, such as R848, for incubation of 20 hrs. The cell culture supernatant SEAP reporter activity was determined using QUANTI-Blue™ kit (Cat. #: rep-qb1, Invivogen, San Diego, Calif., USA) at a wavelength of 640 nm, a detection medium that turns purple or blue in the presence of alkaline phosphatase.

As for `[2H]c1ccc2c(N3C[C@@H]4CN(Cc5ccc(N6CC7CNCC(C6)O7)nc5C)CCN4[C@H](C)C3)ccc(C#N)c2n1` [Example 83, 5-[(4R,9aS)-4-methyl-8-[[2-methyl-6-(9-oxa-3,7-diazabicyclo[3.3.1]nonan-3-yl)-3-pyridyl]methyl]-3,4,6,7,9,9a-hexahydro-1H-pyrazino[1,2-a]pyrazin-2-yl]-2-deuterio-quinoline-8-carbonitrile], the values for the IC50 at human TLR8 and at human TLR7 were 7 nM and 17 nM, respectively.

For the compound `[2H]c1ccc2c(N3C[C@@H]4CN(Cc5ccc(N6CC7CCC(C6)N7)nc5C)CCN4[C@H](C)C3)ccc(C#N)c2n1` [Example 91, 5-[(4R,9aS)-8-[[6-(3,8-diazabicyclo[3.2.1]octan-3-yl)-2-methyl-3-pyridyl]methyl]-4-methyl-3,4,6,7,9,9a-hexahydro-1H-pyrazino[1,2-a]pyrazin-2-yl]-2-deuterio-quinoline-8-carbonitrile], the IC50 at human TLR8 was found to be 20 nM; at human TLR7, 15 nM.

In the case of `[2H]c1ccc2c(N3C[C@@H]4CN(c5ncc(N6C[C@@H](N)[C@@H](OC)C6)cc5C)CCN4[C@H](C)C3)ccc(C#N)c2n1` [Example 96, 5-[(4R,9aR)-8-[5-[(3R,4S)-3-amino-4-methoxy-pyrrolidin-1-yl]-3-methyl-2-pyridyl]-4-methyl-3,4,6,7,9,9a-hexahydro-1H-pyrazino[1,2-a]pyrazin-2-yl]-2-deuterio-quinoline-8-carbonitrile], the IC50 against human TLR8 came out at 5 nM; on human TLR7 it was 2 nM.

As to `Cc1nc(N2CCNC[C@@H]2C)ccc1CN1CCN2[C@@H](C1)CN(c1ccc(C#N)c3ncccc13)C[C@H]2C` [Example 85, 5-[(4R,9aS)-4-methyl-8-[[2-methyl-6-[(2S)-2-methylpiperazin-1-yl]-3-pyridyl]methyl]-3,4,6,7,9,9a-hexahydro-1H-pyrazino[1,2-a]pyrazin-2-yl]quinoline-8-carbonitrile], the figures for the IC50 against human TLR8 and at human TLR7 were 10 nM and 19 nM, respectively.

With `[2H]c1ccc2c(N3C[C@@H]4CN(c5ncc(N6C[C@@H]7C[C@H]6CN7)cc5C)CCN4[C@H](C)C3)ccc(C#N)c2n1` [Example 95, 5-[(4R,9aR)-8-[5-[(1S,4S)-2,5-diazabicyclo[2.2.1]heptan-2-yl]-3-methyl-2-pyridyl]-4-methyl-3,4,6,7,9,9a-hexahydro-1H-pyrazino[1,2-a]pyrazin-2-yl]-2-deuterio-quinoline-8-carbonitrile], the IC50 on human TLR8 amounted to 6 nM; on human TLR7 it was 2 nM.

On to `[2H]c1ccc2c(N3C[C@@H]4CN(Cc5ccc(N6CC7CC(C6)N7)nc5C)CCN4[C@H](C)C3)ccc(C#N)c2n1` [Example 90, 5-[(4R,9aS)-8-[[6-(3,6-diazabicyclo[3.1.1]heptan-3-yl)-2-methyl-3-pyridyl]methyl]-4-methyl-3,4,6,7,9,9a-hexahydro-1H-pyrazino[1,2-a]pyrazin-2-yl]-2-deuterio-quinoline-8-carbonitrile], for which the IC50 was 8 nM against human TLR8 and 13 nM on human TLR7.

With `[2H]c1ccc2c(N3C[C@@H]4CN(Cc5cnc(N6C[C@@H]7C[C@H]6CN7)cc5C)CCN4[C@H](C)C3)ccc(C#N)c2n1` [Example 94, 5-[(4R,9aS)-8-[[6-[(1S,4S)-2,5-diazabicyclo[2.2.1]heptan-2-yl]-4-methyl-3-pyridyl]methyl]-4-methyl-3,4,6,7,9,9a-hexahydro-1H-pyrazino[1,2-a]pyrazin-2-yl]-2-deuterio-quinoline-8-carbonitrile], the IC50 against human TLR8 stood at 8 nM; on human TLR7 it was 25 nM.

Regarding `[2H]c1ccc2c(N3C[C@@H]4CN(CCc5ccnc(N6C[C@@H](N)[C@@H](F)C6)c5)CCN4[C@H](C)C3)ccc(C#N)c2n1` [Example 89, 5-[(4R,9aS)-8-[2-[2-[(3R,4S)-3-amino-4-fluoro-pyrrolidin-1-yl]-4-pyridyl]ethyl]-4-methyl-3,4,6,7,9,9a-hexahydro-1H-pyrazino[1,2-a]pyrazin-2-yl]-2-deuterio-quinoline-8-carbonitrile], the IC50 against human TLR8 came out at 44 nM; on human TLR7 it was 28 nM.
